# In patent EP3727588B1, “ACTIVATOR PEPTIDES OF THE ENZYME ADAM 10 AND RELATED USES IN THE TREATMENT OF ALZHEIMER'S DISEASE” (UNIVERSITA' DEGLI STUDI DI MILANO, priority 2017, dated 2019):
# Several values for one entry are separate records, joined by “and”; a condition that tells them apart may be missing. Equal values may be shown once. Peptide text beside a SMILES is read from it.
# Experiments:
# [1] = blood-brain barrier crossing, anti-TAT immunohistochemistry on coronal brain sections; type: in vivo; conditions: C57BL/6 mice, intraperitoneal injection 3 nmoles/g, 24 hours
# Protocol: For the immunohistochemistry analyses, mice treated with the peptide were anaesthetized deeply and subjected to transcardial perfusion with 4% paraformaldehyde (prepared in PBS, pH 7.2-7.4), through the use of a peristaltic pump. The fixing liquid was inserted into the blood circulation through the left ventricle and after 10 minutes the brain was isolated. The sample was then post-fixed for 1 hour and 30 minutes at 4°C, then washed with PBS 1X and placed o/n in a 30% sucrose solution. The following day the sample was washed again with PBS 1X cut with the vibratome obtaining coronal sections of 50µm. Then the sections were stained through free-floating immunofluorescence technique. The fluorescence images were acquired using the Zeiss Confocal LSM510 Meta system with 63x objective at a resolution of 1024x1024 pixels. […]
# The coronal sections were incubated with a specific antibody for the identification of the MAP2 neurons, and an antibody able to recognize the TAT sequence of HIV-1 present in the CPPs. As shown by the arrows in Figure 6, the presence of a specific signal of the anti-TAT antibody can be identified, which can only be detected in the coronal sections of brain of animals treated with CPPs. […] In the brain of animals only treated with saline solution (Figure 6, panel A), such signal cannot be detected.
# [2] = body weight and food intake during 14 days' treatment; type: in vivo; conditions: C57BL/6 mice, daily intraperitoneal 3 nmol/g
# Protocol: (§1) C57/BL6 adult mice were treated for 14 days with daily intraperitoneal injection of saline solution or peptides at a dose of 3 nmol/g (6-10 animals per experimental group). The animals were maintained in an enclosure at 25 ± 2 °C with an alternating light/dark cycle of 12 hours and had free access to water and food in the form of pellets (standard diet).
# For the entire duration of the treatment, on a daily basis, the weight and food intake of each animal were monitored and recorded, in order to evaluate any changes caused by the treatment. 24 hours after the last injection the mice were anaesthetized, and then the blood was taken through cardiac puncture, whereas the brain and liver of the animal were rapidly dissected to perform biochemical or immunohistological analyses.
# The body weight and food intake were monitored and recorded on a daily basis.
# [3] = blood count and platelet count after 14 days' treatment; type: in vivo, mice; design: key to Aggregate s: +, ++, +++ considering the presence of platelet aggregates detected in the blood smear that make the analysis difficult; +, ++, +++ considering the presence of platelet aggregates detected in the blood smear that make the analysis difficult; +, ++, +++ considering the presence of platelet aggregates detected in the blood smear that make the analysis difficult; key to Estimate Plt: A= appropriate platelet estimate
# Protocol: as §1
# (§2) The blood, collected through cardiac puncture, was analysed with a laser counter (ADVIA 120, Siemens) using specific software for the murine species. From each sample a blood smear was prepared, stained with the May Grünwald-Giemsa method, and used for the morphological analysis of the leukocytes, the red blood cells and the platelet estimate. After the automatic counting of the cells and the preparation of the smear, all the samples were centrifuged and the plasma was transferred into separate test tubes. The analysis of the plasma samples was performed through automatic spectrophotometer (ILAB-300, Instrumentation Laboratory). All the results were compared with the values provided by the company Charles River for mice of the same strain and age.
# The range values are provided by Charles River for C57BL mice aged between 56-70 days, whose blood was collected by cardiac puncture after euthanasia.
# [4] = leukogram (white blood cell count) after 14 days' treatment; type: in vivo, mice
# Protocol: as §1, §2
# Except for the basophils and eosinophils, the total count and white blood cell (WBC) differential is lower with respect to the range values in all the animals treated. However, we noticed that the reference range values provided by the company Charles River are particularly high with respect to other values provided for other control groups and in other scientific articles in which the same animal strain is analysed. Justification for these differences found is provided by the pre-analytical factors used by Charles River in determining the different reference ranges (such as the method used, the type of sampling used, etc.). Despite this, the analyses of the data performed both individually and by examining the mean and median values in the different groups, show some differences in the values referring to mice treated with the active peptide with respect to the control mice (Table 2).
# The following Table 2 illustrates the results of the white blood cell count. The reference values are provided by Charles River for C57BL mice of 56-70 days.
# [5] = individual animal, 14 days, daily intraperitoneal 3 nmol/g
compound,measurement,setting,value
N=C(N)NCCC[C@H](NC(=O)CNC(=O)[C@@H](N)Cc1ccc(O)cc1)C(=O)N[C@@H](CCCCN)C(=O)N[C@@H](CCCCN)C(=O)N[C@@H](CCCNC(=N)N)C(=O)N[C@@H](CCCNC(=N)N)C(=O)N[C@@H](CCC(N)=O)C(=O)N[C@@H](CCCNC(=N)N)C(=O)N[C@@H](CCCNC(=N)N)C(=O)N[C@@H](CCCNC(=N)N)C(=O)NCC(=O)NCC(=O)N[C@@H](CO)C(=O)NCC(=O)N[C@@H](CCC(N)=O)C(=O)N1CCC[C@H]1C(=O)N1CCC[C@H]1C(=O)N[C@@H](CCCNC(=N)N)C(=O)N[C@@H](CCC(N)=O)C(=O)N[C@@H](CCCNC(=N)N)C(=O)N1CCC[C@H]1C(=O)N[C@@H](CCCNC(=N)N)C(=O)NCC(=O)O [PEP3] (H-YGRKKRRQRRRGGSGQPPRQRPRG-OH),capacity to cross the blood-brain barrier (BBB),[1],can cross the BBB and penetrate into the neuron cells
same,food intake (ratio daily food intake / mean body weight),[2],97.09±2.18%
same,(Ht),[3]; group mean,46.2%
same,Hb,[3]; group mean,11.8 g/dL
same,Mean Corpuscula r Hb (MCH),[3]; group mean,13.5 pg
same,Mean Corpuscula r Hb Conc. MCHC,[3]; group mean,25.6%
same,Platelet count,[3]; group mean,999000 µL⁻¹
same,Red blood cells,[3]; group mean,8.74e+06 µL⁻¹
same,Red cell distribution width (RDW),[3]; group mean,19.5%
same,Vol. Mean Corp. Vol. (MCV),[3]; group mean,52.9 fL
same,(Ht),[3]; group median,-46.9%
same,Hb,[3]; group median,-11.9 g/dL
same,Mean Corpuscula r Hb Conc. MCHC,[3]; group median,-25.8%
same,Platelet count,[3]; group median,-1.082e+06 µL⁻¹
same,Red blood cells,[3]; group median,-8.8e+06 µL⁻¹
same,Red cell distribution width (RDW),[3]; group median,-19.7%
same,Vol. Mean Corp. Vol. (MCV),[3]; group median,-53.1 fL
same,Estimate Plt,"[3]; individual animal, blood smear, first part of cell",A
same,Aggregate s,"[3]; individual animal, blood smear, second part of cell",+++
same,(Ht),[3]; [5],41.5% and 47.4% and 48.5% and 48% and 46.3% and 45.7%
same,Hb,[3]; [5],10.9 g/dL and 11.7 g/dL and 12.5 g/dL and 11.9 g/dL (3×)
same,Mean Corpuscula r Hb (MCH),[3]; [5],13.4 Pg (2×) and 13.8 Pg and 13.3 Pg and 13.5 Pg and 13.6 Pg
same,Mean Corpuscula r Hb Conc. MCHC,[3]; [5],26.3% and 24.7% and 25.8% and 24.8% and 25.7% and 26%
same,Platelet count,[3]; [5],861000 µL⁻¹ and 711000 µL⁻¹ and 1.333e+06 µL⁻¹ and 391000 µL⁻¹ and 1.302e+06 µL⁻¹ and 1.394e+06 µL⁻¹
same,Red blood cells,[3]; [5],8.14e+06 µL⁻¹ and 8.75e+06 µL⁻¹ and 9.04e+06 µL⁻¹ and 8.94e+06 µL⁻¹ and 8.84e+06 µL⁻¹ and 8.72e+06 µL⁻¹
same,Red cell distribution width (RDW),[3]; [5],18.7% and 19.3% and 19.9% (2×) and 19.7% (2×)
same,Vol. Mean Corp. Vol. (MCV),[3]; [5],51 fL and 54.2 fL and 53.7 fL (2×) and 52.4 fL (2×)
same,immune / allergic reactions inferred from leukogram,"[4]; 14 days' treatment, said not biologically significant",leads to the development of specific immunity and to the possibility of developing possible allergic/hypergic reactions
same,Basophils,[4]; group mean,10 µL⁻¹
same,Eosinophils,[4]; group mean,90 µL⁻¹
same,Lymphocytes,[4]; group mean,4460 µL⁻¹
same,Monocytes,[4]; group mean,200 µL⁻¹
same,Neutrophils,[4]; group mean,530 µL⁻¹
same,White blood cells,[4]; group mean,5290 µL⁻¹
same,Basophils,[4]; group median,0 µL⁻¹
same,Eosinophils,[4]; group median,(-0.08). x10^3/µL
same,Lymphocytes,[4]; group median,(-4.32). x10^3/µL
same,Monocytes,[4]; group median,(-0.23). x10^3/µL
same,Neutrophils,[4]; group median,(-0.54). x10^3/µL
same,White blood cells,[4]; group median,(-5.21). x10^3/µL
same,Basophils,[4]; [5],0 µL⁻¹ and 40 µL⁻¹
same,Eosinophils,[4]; [5],140 µL⁻¹ and 60 µL⁻¹ and 90 µL⁻¹ and 40 µL⁻¹ and 120 µL⁻¹ and 70 µL⁻¹
same,Lymphocytes,[4]; [5],5740 µL⁻¹ and 2650 µL⁻¹ and 3820 µL⁻¹ and 3720 µL⁻¹ and 4810 µL⁻¹ and 6010 µL⁻¹
same,Monocytes,[4]; [5],270 µL⁻¹ and 60 µL⁻¹ and 180 µL⁻¹ and 130 µL⁻¹ and 290 µL⁻¹ and 280 µL⁻¹
same,Neutrophils,[4]; [5],680 µL⁻¹ and 340 µL⁻¹ and 460 µL⁻¹ and 440 µL⁻¹ and 650 µL⁻¹ and 630 µL⁻¹
same,White blood cells,[4]; [5],6830 µL⁻¹ and 3120 µL⁻¹ and 4550 µL⁻¹ and 4380 µL⁻¹ and 5870 µL⁻¹ and 6990 µL⁻¹
